The results in this text go back to patent US20240262814A1, “MODULATORS OF TREX1” (Constellation Pharmaceuticals, Inc., priority 2021, published 2024).

In experiment [1] the target is T1, human TREX1 (Homo sapiens, UniProt Q9NSU2).
T1 construct: N-terminally His-Tev tagged full length human TREX1; made in house; host or cells: E. coli
T1 sequence (Q9NSU2 1-314): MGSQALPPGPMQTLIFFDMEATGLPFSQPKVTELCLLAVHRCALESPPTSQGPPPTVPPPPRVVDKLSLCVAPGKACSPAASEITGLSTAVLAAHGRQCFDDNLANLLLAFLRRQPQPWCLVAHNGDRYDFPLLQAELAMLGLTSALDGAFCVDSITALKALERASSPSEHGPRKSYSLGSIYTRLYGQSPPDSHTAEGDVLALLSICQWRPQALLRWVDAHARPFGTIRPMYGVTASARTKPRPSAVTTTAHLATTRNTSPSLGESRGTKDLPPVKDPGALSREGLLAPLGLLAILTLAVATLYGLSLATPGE
As to the kind of experiment: hTREX1 Biochemical Assay (fluorescence, dsDNA substrate degradation). The note with it: full length human TREX1, 4 h pre-incubation, 18 h reaction at 25° C. The procedure, abridged:
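His-Tev-tagged full-length E. coli-expressed enzyme (4 pM final) preincubated with compound 4 h at 25° C., then 60 nM quenched-fluorophore dsDNA added in Tris pH 7.4, 5 mM MgCl2, 1% DMSO. After 18 h at 25° C., EDTA-quenched; fluorescence 615 nm (ex 570 nm); IC50 from four-parameter fit versus EDTA and no-inhibitor controls.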

For experiment [2], the target named is T2, human TREX2 (Homo sapiens, UniProt Q9BQ50).
T2 construct: human TREX2 (residues M44-A279, expressed in E. coli); made in house; host or cells: E. coli
T2 sequence (Q9BQ50 44-279 isoform Q9BQ50-1): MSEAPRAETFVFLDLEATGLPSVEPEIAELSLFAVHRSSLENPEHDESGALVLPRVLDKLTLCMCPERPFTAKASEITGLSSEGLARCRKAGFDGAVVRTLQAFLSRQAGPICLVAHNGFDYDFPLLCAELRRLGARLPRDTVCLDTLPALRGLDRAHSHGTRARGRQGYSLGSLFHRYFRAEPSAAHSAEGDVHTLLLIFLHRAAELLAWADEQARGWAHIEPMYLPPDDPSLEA
As to the kind of experiment: hTREX2 Biochemical Assay (selectivity hTREX1 vs hTREX2). The note with it: biochemical selectivity for hTREX1 vs hTREX2. The procedure, abridged: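 His-Tev-tagged human TREX2 (M44-A279, E. coli-expressed) preincubated with compound (10-point dose-response) for 4 h at 25 °C in Tris pH 7.4 buffer with 5 mM MgCl2. Reaction then run with 60 nM TEX615/quencher dsDNA and 50 pM enzyme (1% DMSO) for 18 h at 25 °C and EDTA-quenched. Fluorescence read at 615 nm (ex 570 nm); IC50 by four-parameter fit against pre-quenched and no-inhibitor controls.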

As usually defined, the IC50 is the concentration that inhibits the measured activity by half. A higher IC50 goes with weaker potency.

As for `C[C@H](c1nc(C(=O)Nc2cnoc2)c(O)c(=O)n1C)[C@H](c1ccccc1)c1ccccc1Cl` (single isomer, unassigned) [Example 2 Isomer 3, 2-(1-(2-chlorophenyl)-1-phenylpropan-2-yl)-5-hydroxy-N-(isoxazol-4-yl)-1-methyl-6-oxo-1,6-dihydropyrimidine-4-carboxamide], in experiment [1], the IC50 was < 1 nM. For the same compound, the “hTREX1 vs hTREX2 selectivity” value in experiment [2] is on record as “B (B = 25 to 50 fold selective for hTREX1)”.

`Cn1c([C@H](C(c2ccccc2)c2ccccc2)C(F)(F)F)nc(C(=O)Nc2cnoc2)c(O)c1=O` (single isomer, unassigned) [Example 20 Isomer 1, 5-Hydroxy-N-(isoxazol-4-yl)-1-methyl-6-oxo-2-(1,1,1-trifluoro-3,3-diphenylpropan-2-yl)-1,6-dihydropyrimidine-4-carboxamide]: the half-maximal inhibitory concentration (IC50) in experiment [1] fell in the range of 10 to 100 nM. For the same compound, the “hTREX1 vs hTREX2 selectivity” value in experiment [2] is “A (A = <25 fold selective for hTREX1)”.

On to `CC(c1nc(C(=O)Nc2cnoc2)c(O)c(=O)n1C)C(c1ccccc1)c1ccccc1C#N` (single isomer, unassigned) [Example 3 Isomer 4], for which, in experiment [1], the IC50 was < 1 nM. Moreover, the “hTREX1 vs hTREX2 selectivity” value in experiment [2] is given as “B (B = 25 to 50 fold selective for hTREX1)”.

Consider `CC(c1nc(C(=O)Nc2cnoc2)c(O)c(=O)n1C)C(c1ccccc1Cl)c1ccccc1C#N` (single isomer, unassigned) [Example 10 Isomer 1], for which, in experiment [1], the half-maximal inhibitory concentration (IC50) was < 1 nM. For the same compound, the “hTREX1 vs hTREX2 selectivity” value in experiment [2] is listed as “C (C = >50 fold selective for hTREX1)”.

In the case of `CC(c1nc(C(=O)Nc2cnoc2)c(O)c(=O)n1C)C(c1ccccc1)c1ccccc1` (single isomer, unassigned) [Example 1 Isomer 2, 2-(1,1-diphenylpropan-2-yl)-5-hydroxy-N-(isoxazol-4-yl)-1-methyl-6-oxo-1,6-dihydro pyrimidine-4-carboxamide], in experiment [1], the IC50 lay within 1 to 10 nM. In addition, the “hTREX1 vs hTREX2 selectivity” value in experiment [2] is on record as “A (A = <25 fold selective for hTREX1)”.

In the case of `CC(c1nc(C(=O)Nc2cnoc2)c(O)c(=O)n1C)C(c1ccccc1)c1cc(C(=O)N(C)C)ccc1C#N` (single isomer, unassigned) [Example 17 Isomer 3], the half-inhibitory concentration (IC50) in experiment [1] is < 1 nM. For the same compound, in experiment [2], the “hTREX1 vs hTREX2 selectivity” value is given as “B (B = 25 to 50 fold selective for hTREX1)”.

With `Cn1c([C@@H](C(c2ccccc2C#N)c2ccccc2C#N)C(F)(F)F)nc(C(=O)Nc2cnoc2)c(O)c1=O` (single isomer, unassigned) [Example 21 Isomer 1, 2-(3,3-bis(2-cyanophenyl)-1,1,1-trifluoropropan-2-yl)-5-hydroxy-N-(isoxazol-4-yl)-1-methyl-6-oxo-1,6-dihydropyrimidine-4-carboxamide], in experiment [1], the IC50 was < 1 nM. For the same compound, the “hTREX1 vs hTREX2 selectivity” value in experiment [2] was “C (C = >50 fold selective for hTREX1)”.

With `CC(c1nc(C(=O)Nc2cnoc2)c(O)c(=O)n1C)C(c1ccccc1C#N)c1ccccc1C#N` (single isomer, unassigned) [Example 4 Isomer 2], in experiment [1], the IC50 is < 1 nM. Also, in experiment [2], the “hTREX1 vs hTREX2 selectivity” value is listed as “C (C = >50 fold selective for hTREX1)”.

Turning to `CC(c1nc(C(=O)Nc2cnoc2)c(O)c(=O)n1C)C(c1ccccc1)c1ccc(Cl)cc1C#N` (single isomer, unassigned) [Example 9 Isomer 4], the half-inhibitory concentration (IC50) in experiment [1] was < 1 nM. Also, in experiment [2], the “hTREX1 vs hTREX2 selectivity” value was “B (B = 25 to 50 fold selective for hTREX1)”.

On to `CC(c1nc(C(=O)Nc2cnoc2)c(O)c(=O)n1C)C(c1ccccc1)c1ccccc1` (single isomer, unassigned) [Example 1 Isomer 1, 2-(1,1-diphenylpropan-2-yl)-5-hydroxy-N-(isoxazol-4-yl)-1-methyl-6-oxo-1,6-dihydro pyrimidine-4-carboxamide], for which the IC50 in experiment [1] is > 100 nM. Also, in experiment [2], the “hTREX1 vs hTREX2 selectivity” value is recorded as “A (A = <25 fold selective for hTREX1)”.

Regarding `CC(c1nc(C(=O)Nc2cnoc2)c(O)c(=O)n1C)C(c1ccccc1)c1cc(Cl)ccc1C#N` (single isomer, unassigned) [Example 8 Isomer 2], in experiment [1], the half-maximal inhibitory concentration (IC50) was < 1 nM. Also, in experiment [2], the “hTREX1 vs hTREX2 selectivity” value is on record as “C (C = >50 fold selective for hTREX1)”.

In the case of `CC(c1nc(C(=O)Nc2cnoc2)c(O)c(=O)n1C)C(c1ccccc1)c1cc(F)ccc1C#N` (single isomer, unassigned) [Example 6 Isomer 4], the IC50 in experiment [1] was < 1 nM. Moreover, in experiment [2], the “hTREX1 vs hTREX2 selectivity” value was “B (B = 25 to 50 fold selective for hTREX1)”.

In experiment [1], `C[C@H](c1nc(C(=O)Nc2cnoc2)c(O)c(=O)n1C)[C@H](c1ccccc1)c1ccccc1C(F)(F)F` (single isomer, unassigned) [Example 14 Isomer 2, 5-Hydroxy-N-(isoxazol-4-yl)-1-methyl-6-oxo-2-(1-phenyl-1-(2-(trifluoromethyl)phenyl)propan-2-yl)-1,6-dihydropyrimidine-4-carboxamide] returned an IC50 of 1 to 10 nM. For the same compound, the “hTREX1 vs hTREX2 selectivity” value in experiment [2] is given as “C (C = >50 fold selective for hTREX1)”.

Consider `C[C@H](c1nc(C(=O)Nc2cnoc2)c(O)c(=O)n1C)C(c1ccccc1Cl)c1ccccc1Cl` (single isomer, unassigned) [Example 15 Isomer 1, 2-(1,1-bis(2-chlorophenyl)propan-2-yl)-5-hydroxy-N-(isooxazol-4-yl)-1-methyl-6-oxo-1,6-dihydropyrimidine-4-carboxamide], for which, in experiment [1], the IC50 is < 1 nM. For the same compound, in experiment [2], the “hTREX1 vs hTREX2 selectivity” value is given as “C (C = >50 fold selective for hTREX1)”.

For `CC(c1nc(C(=O)Nc2cnoc2)c(O)c(=O)n1C)C(c1cc(F)cc(F)c1)c1ccccc1C#N` (single isomer, unassigned) [Example 11 Isomer 3], the IC50 in experiment [1] was < 1 nM. In experiment [2], the “hTREX1 vs hTREX2 selectivity” value is “B (B = 25 to 50 fold selective for hTREX1)”.
